Data reported in paper PMC11791975, “Highly Sensitive In Vivo Imaging of Bacterial Infections with a Hydrophilicity‐Switching, Self‐Immobilizing, Near‐Infrared Fluorogenic β‐Lactamase Probe Enriched within Bacteria” (Advanced Science, 2024).

Columns and labels:
[1] = molecular target: T1, New Delhi metallo β lactamase-1 (NDM-1 bla) (Klebsiella pneumoniae, UniProt C7C422); experiment: biochemical; set-up: beta-lactamase inhibition, fluorogenic substrate CDC-1 hydrolysis, initial velocity, 10 min preincubation
T1 construct: gene blaNDM-1
Experimental: (§1) 36 and imaged with an Odyssey SA near-infrared two-color laser imaging system, followed by staining with Coomassie brilliant blue. Assay for IC50 of β-Lactamase Inhibitor The IC50 was determined following the reported protocol with minor modifications. […] The initial velocity (V0) was calculated using the linear portions of the curves. Each experiment was triplicated. The IC50 was obtained by fitting a dose-response curve using Graph Pad Prism 7 software.

[2] = molecular target: T1, New Delhi metallo β lactamase-1 (NDM-1 bla); experiment: in vitro β-lactamase inhibition assay (IC50, Figure S29; also cites ref […]); assay type: biochemical
[3] = molecular target: TEM-1 β-lactamase (TEM-1 bla) (Escherichia coli, UniProt P62593); experiment: biochemical; set-up: beta-lactamase inhibition, fluorogenic substrate CDC-1 hydrolysis, initial velocity, 10 min preincubation; settings: read-out: IC50 (μM) ebselen TEM-1
Experimental: as §1

T1 sequence (C7C422 29-270 limits assumed): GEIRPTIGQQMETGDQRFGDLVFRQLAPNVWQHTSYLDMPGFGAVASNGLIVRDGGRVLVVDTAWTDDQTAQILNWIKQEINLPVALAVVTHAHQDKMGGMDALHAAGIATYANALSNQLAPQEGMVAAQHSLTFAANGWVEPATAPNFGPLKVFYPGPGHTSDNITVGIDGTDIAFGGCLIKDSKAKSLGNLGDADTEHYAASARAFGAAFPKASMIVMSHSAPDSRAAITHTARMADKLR
TEM-1 β-lactamase (TEM-1 bla), sequence (P62593 24-286 limits assumed): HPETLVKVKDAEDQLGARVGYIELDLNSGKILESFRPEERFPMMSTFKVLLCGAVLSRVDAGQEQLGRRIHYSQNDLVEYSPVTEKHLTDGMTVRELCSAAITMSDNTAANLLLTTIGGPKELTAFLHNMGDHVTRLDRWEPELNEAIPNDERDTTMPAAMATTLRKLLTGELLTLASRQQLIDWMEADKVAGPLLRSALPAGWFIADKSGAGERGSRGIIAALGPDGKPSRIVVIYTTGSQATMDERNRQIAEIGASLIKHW

Row | Structure (SMILES) | IC50 [1] | IC50 [2] | IC50 [3]
1 | NC(=O)[C@@H]1CC[C@@H]2CN1C(=O)N2OS(=O)(=O)O [avibactam] | > 25 µM |  | 
2 | O=c1c2ccccc2[se]n1-c1ccccc1 [ebselen] |  | 0.508 µM | > 25 µM
